Values quoted from earlier work in patent publication US20250215044A1, “Compounds and Methods for Inhibiting LPA” (Ionis Pharmaceuticals, Inc., priority 2023, published 2025).

Test system: plasma Lp(a)
Design: concentration or dose not given beside the values
Settings: clinical setting

Row | Compound | reduction of plasma Lp(a) levels
1 | COc1cc(F)c(C(C)C)cc1-c1ccc(C(F)(F)F)cc1CN1C(=O)O[C@H](c2cc(C(F)(F)F)cc(C(F)(F)F)c2)[C@@H]1C [Anacetrapib] | 36%
2 | CC(C)c1cc(Oc2c(Br)cc(NC(=O)CC(=O)O)cc2Br)ccc1O [Epirotirome] | 43%
3 | O=C(NC1CCN(CCCCC2(C(=O)NCC(F)(F)F)c3ccccc3-c3ccccc32)CC1)c1ccccc1-c1ccc(C(F)(F)F)cc1 [Lomitapide] | 17%
4 | O=C(O)c1cccnc1 [Niaspan] | 39%
5 | CC(=O)Oc1ccccc1C(=O)O [aspirin] | 18%
6 | Mipomersen | 32%
